The text below walks through data of patent publication US11541057B2, “Thienopyrimidinone NMDA receptor modulators and uses thereof” (Cadent Therapeutics, Inc., priority 2015, dated 2023).

In this assay the target is T1, NMDA receptor GRIN1/GRIN2B (NR2B) expressed in HEK293 cells (Homo sapiens, UniProt Q13224).
T1 construct: host or cells: HEK293
In words: Reversal of Ro 25-6981-mediated suppression of the Ca2+ response (fluo-8 fluorescence, FDSS) in HEK293 cells expressing GRIN1 and GRIN2B. Format: cell-based. The conditions noted are these: % reversal=100*(R−Rneg)/(Rpos−Rneg) of Ro 25-6981 suppression of co-agonist (glutamate/glycine) Ca2+ response, 10 min pre-incubation, compound concentration not given. The protocol:
HEK293 cells with constructs conferring stable expression of the GRIN1 gene and tetracycline-inducible expression of the GRIN2B gene (Chantest, Cleveland, Ohio) are grown to ˜75% confluence in tissue culture flasks at 37° C., 5% CO2. NR2B expression is induced by overnight incubation with 0.3-0.4 μg/ml tetracycline in the presence of 2.5 mM ARL-15896 at 37° C., followed by moving to 30° C. for 3-5 hours. Cells are next harvested using TripleExpress™ (Life Technologies, Carlsbad, Calif.) according to the manufacturer's instructions, first removing culture medium, rinsing with Dulbecco's phosphate buffered saline (Ca^2+ and Mg^2+-free), and then adding the TripleExpress™ reagent. Harvested cells are spun down, washed twice in Ca^2+- and Mg^2+-free Hank's Balanced Salt Solution with 20 mM HEPES and 10 mM glucose, pH 7.4 (HHnoCa solution), and counted with viability assessed using Trypan Blue. Cells are loaded with fluo-8 Ca^2+-sensitive dye in HHnoCa solution according to the manufacturer's directions (AAT Bioquest, Sunnyvale, Calif.), incubating at 37° C. for 20 minutes followed by 25 minutes at 22-25° C. After a wash in HHnoCa to remove extracellular dye, cells are resuspended in HHnoCa and plated at […] cells per well in a volume of 25 μl/well in 384 well black-wall, clear bottom plates (Hamamatsu, Middlesex, N.J.). Plates are then centrifuged to create a monolayer in the wells and stored in the dark until used.
Prior to analysis, compound plates are prepared with each compound at 6× the final desired concentration. From stock solutions at 10 mM in 100% DMSO, compounds are spotted in the desired amounts using an ECHO liquid handler (Labcyte, Sunnyvale, Calif.) into wells of a 384-well plate and then diluted with 50 μl of HHnoCa containing 750 nM Ro 25-6981 and 120 μM 5,7-dichlorokynurenic acid (both purchased from Tocris Bioscience (Bristol, England) and maintained as 10 mM stock solutions in 100% DMSO). To insure complete compound dissolution, these plates are then placed in an orbital shaker for at least one hour. Also prepared prior to the assay is a co-agonist plate containing HHnoCa with 240 μM glutamate, 2.4 mM glycine, and 7.2 mM CaCl2, which is 2.4× the desired final concentration of each reagent. Both the compound plate and co-agonist plate are 384-well polypropylene plates from Thermo Fisher Scientific, Waltham, Mass.
The assay is performed by first adding 10 μl solution from each well of the compound plate described above to the cell plate using a CyBiWell liquid handler (Analytik Jena AG, Jena, Germany), followed by 10 minutes pre-incubation in the dark. Cell plates are then loaded onto a Hamamatsu FDSS 6000 plate reader. After a 30-second baseline, 25 μl is added to each well from the co-agonist plate, and the fluorescence signal is recorded for another 2 minutes. FDSS software applies shading and autofluorescence correction, and resultant raw fluorescence measurements are exported in the form of a fluorescence ratio for each well to its own reading at time zero in the experiment. In each plate, negative control wells consist of wells where Ro 25-6981 and 5,7 dichlorokynurenic acid are present and co-agonist is applied in the absence of any added assay compound. Under these conditions, the Ca^2+ response to co-agonist is suppressed. Positive control wells also present in each plate contain 5,7 dichlorokynurenic acid but no Ro 25-6981, so that co-agonist addition results in a large Ca^2+ response. Compounds tested are evaluated on the basis of their ability to reverse the suppression of the Ca^2+ response mediated by Ro 25-6981, which is quantified as % reversal=100*(R−Rneg)/(Rpos−Rneg) where R is the fluorescence ratio for the test compound at the end of the experiment and Rneg and Rpos are the end ratios for the negative and positive controls, respectively. […]

T1 sequence (Q13224 27-1484, other chains not shown): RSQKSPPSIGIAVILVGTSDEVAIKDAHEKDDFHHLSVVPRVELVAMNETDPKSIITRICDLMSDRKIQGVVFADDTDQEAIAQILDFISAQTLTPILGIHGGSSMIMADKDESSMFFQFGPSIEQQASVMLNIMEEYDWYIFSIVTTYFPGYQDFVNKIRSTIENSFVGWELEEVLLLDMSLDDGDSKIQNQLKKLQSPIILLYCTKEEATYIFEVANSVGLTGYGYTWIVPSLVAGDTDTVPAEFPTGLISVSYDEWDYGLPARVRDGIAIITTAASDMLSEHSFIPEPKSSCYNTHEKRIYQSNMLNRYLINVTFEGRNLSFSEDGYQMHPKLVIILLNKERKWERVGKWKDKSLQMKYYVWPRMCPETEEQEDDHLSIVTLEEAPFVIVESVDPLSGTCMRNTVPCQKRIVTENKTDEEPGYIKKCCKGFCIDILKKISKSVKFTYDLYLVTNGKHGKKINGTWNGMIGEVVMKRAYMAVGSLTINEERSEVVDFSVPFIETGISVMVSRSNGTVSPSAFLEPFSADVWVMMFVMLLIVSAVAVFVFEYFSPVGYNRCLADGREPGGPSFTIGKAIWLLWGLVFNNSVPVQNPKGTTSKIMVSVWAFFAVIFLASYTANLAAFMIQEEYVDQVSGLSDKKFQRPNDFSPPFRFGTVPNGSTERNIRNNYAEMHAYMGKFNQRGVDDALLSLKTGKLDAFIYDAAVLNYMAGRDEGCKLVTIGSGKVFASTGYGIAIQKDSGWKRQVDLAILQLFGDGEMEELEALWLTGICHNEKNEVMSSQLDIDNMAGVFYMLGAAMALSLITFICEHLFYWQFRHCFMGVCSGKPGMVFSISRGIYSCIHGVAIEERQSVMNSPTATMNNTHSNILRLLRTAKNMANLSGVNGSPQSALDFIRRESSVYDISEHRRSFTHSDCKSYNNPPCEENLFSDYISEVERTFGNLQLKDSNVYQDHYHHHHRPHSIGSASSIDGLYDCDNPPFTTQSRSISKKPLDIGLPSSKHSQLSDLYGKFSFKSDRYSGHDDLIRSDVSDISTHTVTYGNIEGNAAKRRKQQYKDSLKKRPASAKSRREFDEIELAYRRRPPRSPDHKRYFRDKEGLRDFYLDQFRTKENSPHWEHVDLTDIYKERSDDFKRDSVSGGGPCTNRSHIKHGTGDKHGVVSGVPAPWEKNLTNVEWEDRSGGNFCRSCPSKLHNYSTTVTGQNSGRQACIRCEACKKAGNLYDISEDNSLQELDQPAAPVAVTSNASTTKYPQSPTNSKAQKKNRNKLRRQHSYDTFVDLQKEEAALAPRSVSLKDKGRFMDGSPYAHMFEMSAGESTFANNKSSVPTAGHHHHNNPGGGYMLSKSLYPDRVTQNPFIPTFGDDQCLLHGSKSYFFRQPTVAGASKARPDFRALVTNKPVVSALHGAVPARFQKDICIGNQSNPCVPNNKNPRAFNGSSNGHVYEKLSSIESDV

In the case of `Cc1sc2ncn(CC(=O)N3CCCC3)c(=O)c2c1-c1ccc(Cl)c(Cl)c1` [Example 84, 5-(3,4-dichlorophenyl)-6-methyl-3-[2-oxo-2-(pyrrolidin-1-yl)ethyl]-3H,4H-thieno[2,3-d]pyrimidin-4-one], the “Response Recovered (%)” value was 60%. For `O=C(Cn1cnc2sc(-c3ccc(Cl)cc3)cc2c1=O)N1CCC(F)(F)CC1` [Example 78, 6-(4-chlorophenyl)-3-[2-(4,4-difluoropiperidin-1-yl)-2-oxoethyl]-3H,4H-thieno└2,3-d┘pyrimidin-4-one] the value was 13%; for `O=C(Cn1cnc2scc(-c3cccc(F)c3)c2c1=O)N1CCCC1` [Example 31, 5-(3-fluorophenyl)-3-[2-oxo-2-(pyrrolidin-1-yl)ethyl]-3H,4H-thieno└2,3-d┘pyrimidin-4-one], 3%. For the molecule `O=C(Cn1cnc2scc(-c3ccc(Cl)cc3)c2c1=O)N1CCC(O)CC1` [Example 1, 5-(4-chlorophenyl)-3-(2-(4-hydroxypiperidin-1-yl)-2-oxoethyl)thieno[2,3-d]pyrimidin-4(3H)-one], the “Response Recovered (%)” value turned out to be 0%.

As for `Cc1sc2ncn(CC(=O)N3CCCC3C(F)(F)F)c(=O)c2c1-c1ccc(Cl)cc1` (stereo not shown) [Example 80, 5-(4-chlorophenyl)-6-methyl-3-{2-oxo-2-[2-(trifluoromethyl)pyrrolidin-1-yl]ethyl}-3H,4H-thieno[2,3-d]pyrimidin-4-one], the “Response Recovered (%)” value worked out at 10%. In the case of `CC(C)(C)c1ccc(-c2csc3ncn(CC(=O)N4CCCC4)c(=O)c23)cc1` [Example 35, 5-(4-tert-butylphenyl)-3-[2-oxo-2-(pyrrolidin-1-yl)ethyl]-3H,4H-thieno[2,3-d]pyrimidin-4-one], the “Response Recovered (%)” value is given as 14%. The value for `O=C(Cn1cnc2scc(-c3ccc(F)c(F)c3)c2c1=O)N1CCCC1` [Example 42, 5-(3,4-difluorophenyl)-3-[2-oxo-2-(pyrrolidin-1-yl)ethyl]-3H,4H-thieno[2,3-d]pyrimidin-4-one] was 3%; that for `O=C(Cn1cnc2scc(-c3ccc(Cl)cc3)c2c1=O)N1CCC(O)C1` (stereo not shown) [Example 6, 5-(4-chlorophenyl)-3-[2-(3-hydroxypyrrolidin-1-yl)-2-oxoethyl]-3H,4H-thieno[2,3-d]pyrimidin-4-one] was 3%. The value for `O=C(On1cnc2scc(-c3ccc(Cl)c(F)c3)c2c1=O)N1CCCC1` [Example 87, 5-(4-chloro-3-fluorophenyl)-4-oxo-3H,4H-thieno[2,3-d]pyrimidin-3-yl pyrrolidine-1-carboxylate] was 32%. For `O=C(Cn1cnc2sc(-c3ccc(Cl)cc3)cc2c1=O)N1CCCC1` [Example 74, 6-(4-chlorophenyl)-3-(2-oxo-2-(pyrrolidin-1-yl)ethyl)thieno[2,3-d]pyrimidin-4(3H)-one], the “Response Recovered (%)” value was 1%. For the molecule `O=C(CCn1cnc2scc(-c3ccc(Cl)c(C(F)(F)F)c3)c2c1=O)N1CCC(F)C1` (stereo not shown) [Example 102, 5-[4-chloro-3-(trifluoromethyl)phenyl]-3-[3-(3-fluoropyrrolidin-1-yl)-3-oxopropyl]-3H,4H-thieno[2,3-d]pyrimidin-4-one], the “Response Recovered (%)” value came out at 2%. The value for `CCN(CC)C(=O)Cn1cnc2scc(-c3ccc(Cl)cc3)c2c1=O` [Example 13, 2-[5-(4-chlorophenyl)-4-oxo-3H,4H-thieno[2,3-d]pyrimidin-3-yl]-N,N-diethylacetamide] was 5%. For `Cc1nc2scc(-c3ccc(Cl)cc3)c2c(=O)n1CC(=O)N1CCCC1C(F)(F)F` (stereo not shown) [Example 99, 5-(4-chlorophenyl)-2-methyl-3-{2-oxo-2-[2-(trifluoromethyl)pyrrolidin-1-yl]ethyl}-3H,4H-thieno[2,3-d]pyrimidin-4-one] the value was 3%; for `O=C(Cn1cnc2sc(-c3ccc(Cl)cc3)cc2c1=O)NC1CC1` [Example 76, 2-[6-(4-chlorophenyl)-4-oxo-3H,4H-thieno[2,3-d]pyrimidin-3-yl]-N-cyclopropylacetamide], 34%. For `O=C(Cn1c(C(F)(F)F)nc2scc(-c3ccc(Cl)cc3)c2c1=O)N1CCCC1` [Example 105, 5-(4-chlorophenyl)-3-[2-oxo-2-(pyrrolidin-1-yl)ethyl]-2-(trifluoromethyl)-3H,4H-thieno[2,3-d]pyrimidin-4-one] the value was −1%. As to `CC1CCCC(C)N1C(=O)Cn1cnc2scc(-c3ccc(Cl)cc3)c2c1=O` (stereo not shown) [Example 12, 5-(4-chlorophenyl)-3-[2-(2,6-dimethylpiperidin-1-yl)-2-oxoethyl]-3H,4H-thieno[2,3-d]pyrimidin-4-one], the “Response Recovered (%)” value was −1%. `O=C(Cn1cnc2scc(-c3ccc(Cl)cc3)c2c1=O)N1CCCC1C(F)(F)F` (stereo not shown) [Example 11, 5-(4-chlorophenyl)-3-{2-oxo-2-[2-(trifluoromethyl)pyrrolidin-1-yl]ethyl}-3H,4H-thieno[2,3-d]pyrimidin-4-one]: the “Response Recovered (%)” value is 8%. The value for `O=C(Cn1cnc2scc(-c3ccc(Cl)cc3)c2c1=O)NC1CCC1` [Example 9, 2-[5-(4-chlorophenyl)-4-oxo-3H,4H-thieno[2,3-d]pyrimidin-3-yl]-N-cyclobutylacetamide] was 3%; that for `Cc1ccc(-c2csc3ncn(CC(=O)N4CCCC4C(F)(F)F)c(=O)c23)cc1` (stereo not shown) [Example 28, 5-(4-methylphenyl)-3-{2-oxo-2-[2-(trifluoromethyl)pyrrolidin-1-yl]ethyl}-3H,4H-thieno[2,3-d]pyrimidin-4-one] was 6%. The value for `O=C(Cn1cnc2scc(-c3ccc(OC(F)(F)F)cc3)c2c1=O)N1CCCC1` [Example 34, 3-[2-oxo-2-(pyrrolidin-1-yl)ethyl]-5-[4-(trifluoromethoxy)phenyl]-3H,4H-thieno[2,3-d]pyrimidin-4-one] was 16%; that for `Cc1sc2ncn(CC(=O)N3CCCC3)c(=O)c2c1-c1ccc(F)c(C(F)(F)F)c1` [Example 81, 5-[4-fluoro-3-(trifluoromethyl)phenyl]-6-methyl-3-[2-oxo-2-(pyrrolidin-1-yl)ethyl]-3H,4H-thieno[2,3-d]pyrimidin-4-one] was 40%; that for `CN(C)/C=N/n1cnc2scc(-c3ccc(Cl)c(C(F)(F)F)c3)c2c1=O` [Example 100, (E)-N′-(5-(4-chloro-3-(trifluoromethyl)phenyl)-4-oxothieno[2,3-d]pyrimidin-3(4H)-yl)-N,N-dimethylformimidamide] was 14%. The value for `O=C(Cn1cnc2scc(-c3ccc(C(F)(F)F)cc3)c2c1=O)N1CCCC1C(F)(F)F` (stereo not shown) [Example 18, 3-{2-oxo-2-[2-(trifluoromethyl)pyrrolidin-1-yl]ethyl}-5-[4-(trifluoromethyl)phenyl]-3H,4H-thieno[2,3-d]pyrimidin-4-one] was 8%; that for `O=C(Cn1cnc2scc(-c3ccc(Cl)c(Cl)c3)c2c1=O)N1C[C@@H](F)[C@@H](F)C1` [Example 67, 5-(3,4-dichlorophenyl)-3-{2-[(3R,4S)-3,4-difluoropyrrolidin-1-yl]-2-oxoethyl}-3H,4H-thieno[2,3-d]pyrimidin-4-one] was 84%; that for `O=C(Cn1cnc2scc(-c3cc(C(F)(F)F)cc(C(F)(F)F)c3)c2c1=O)N1CCCC1` [Example 48, 5-[3,5-bis(trifluoromethyl)phenyl]-3-[2-oxo-2-(pyrrolidin-1-yl)ethyl]-3H,4H-thieno[2,3-d]pyrimidin-4-one] was −1%.
